Source: US20110166059A1, “MEANS AND METHODS FOR EVALUATING A THERAPY WITH A P38 MAP KINASE INHIBITOR” (priority 2008, published 2011)

How the values were obtained:
[1] = test system: TNF, IL-6 or IL-10; conditions: human volunteers, control group increased after about 2-4 hours; oral inhibitor; cited from earlier work
[2] = test system: LPS-stimulated human monocytes; test: Microarray gene expression profile of long-term LPS-stimulated monocytes in the presence of kinase inhibitors; type: cell-based; conditions: for late-stage LPS-induced gene expression change (principal component analysis, FIG. 4): long-term (16 hours) LPS-treated monocytes, 100 ng/ml LPS, inhibitor 10 μM
Experimental: (§1) Monocytes were isolated from pooled human buffy coats by Ficoll-Paque and subsequent Percoll (Pharmacia, Freiburg, Germany) density-gradient centrifugation to greater than 90% purity. Monocytes were cultured (1×10^6 cells/nil) in hydrophobic Teflon bags (Hereus, Hanau, Germany) in McCoy's 5a medium (Biochrom, Berlin, Germany) supplemented with 15% FCS, 2 mM L-glutamine, 200 IU penicillin, 100 μg/ml streptomycin and 1× NEAA (all from Biochrom, Berlin, Germany) and allowed to rest for 18 h prior to stimulation. Monocytes were exposed for 4 and 16 hours to 100 ng/ml LPS in the absence or presence of 10 μM PD98059, 10 μM GF109203X or 10 μm SB202190, respectively, or were left untreated
Total cellular RNA was isolated from 3 independent experiments with untreated and LPS-stimulated human monocytes in the absence or presence of pharmacological kinase inhibitors (RNeasy kit; Qiagen, Hilden, Germany). RNA preparation, samples preparation and hybridization to Affymetrix Human Genome 133 A Gene Chip arrays were performed according to the manufacturer's instructions (Affymetrix, Santa Clara, Calif.).
Ten micrograms of fragmented cRNA was, together with control cRNAs and grid alignment oligonucleotides, hybridized for 16 hours under constant rotation at 45° C. to Affymetrix Human Genome 133 A Gene Chip arrays (Affymetrix). Arrays were washed and stained using the Gene Chip Fluidics Station 400 (Affymetrix). Fluorescent signals were detected by the HP G2500A Gene Array Scanner (Affymetrix).
Data were processed by MicroArray Suite (MAS) Software 5.0 (Affymetrix). Signals were scaled to a target intensity of 100 and log transformed. The algorithm applied in the MAS 5.0 software assigned individual average background values to each cell intensity and subtracted it from single raw cell intensities Single raw values were calculated for each probe set (i.e., transcript from the median of discrimination values and their significance was assessed by using a one-sided Wilcoxon rank test).
While the MAS 5.0 software only allows comparison of 2 individuals data sets, we further studied the Affymetrix intensity files with the Expressionist Suite software package (GeneData, Basel, Switzerland) for a more sophisticated statistical analysis. […] The software package includes the Expressionist Refiner v3.0.4 which permits a global chip quality control with detection and masking of outliers and array defects, fluorescence gradient correction, and variance regularization. For final identification of significant gene expression difference we used Expressionist Analyst v4.0.5. First, data were normalized to a logarithmic mean of 180 in all experiments. […] Finally, n-fold changes were determined and screened for their significance by applying a t test. […]

[3] = test system: promoter regions of LPS-regulated proinflammatory genes (VCAM, IL8, DUSP1, TNF, MYC) in monocytes; test: Chromatin immunoprecipitation (ChIP) of histone acetylation and methylation at promoters of pro-inflammatory genes in LPS-treated monocytes; type: cell-based, human; conditions: long-term (16 h) LPS treatment, ongoing inhibition of p38 MAP kinase; FIGS. 8 and 10
Experimental: as §1
After stimulation, monocytes were formalin-fixed, washed, lysed, and sonicated. DNA-protein complexes were immunoprecipitated with polyclonal histone-antibodies against H3K4 (abcam, Cambridge, UK), H3K79 and AcH4 (both upstate, Lake Placid, N.Y.). […] PCR products were processed by using the QuantiTect SYBR Green PCR kit to perform quantitative RT-PCRs employing the ABI PRISM 7900 (Applied Biosystems).

Compound | increase in cytokines such as TNF, IL-6 or IL-10 after LPS administration [1] | late-stage LPS-induced gene expression change (principal component analysis, FIG. 4) [2] | down-regulation of inflammatory response genes in the late stage of LPS-signaling ([2]; human monocytes, 16 hours 100 ng/ml LPS, 10 μm SB202190) | acetylation of H4 (AcH4) at pro-inflammatory genes [3]
Cc1ccc(-n2nc(C(C)(C)C)cc2NC(=O)Nc2ccc(OCCN3CCOCC3)c3ccccc23)cc1 [BIRB 796 BS, 1-(5-tert-butyl-2-p-tolyl-2H-pyrazol-3-yl)-3-[4-(2-morpholin-4-yl-ethoxy)-naphthalen-1-yl]-urea] | did not show a significant increase in these cytokines | – | – | –
CN(C)CCCn1cc(C2=C(c3c[nH]c4ccccc34)C(=O)NC2=O)c2ccccc21 [GF109203X] | – | did not significantly change gene expression | – | –
COc1cccc(-c2cc(=O)c3ccccc3o2)c1N [PD98059] | – | did not significantly change gene expression | – | –
Oc1ccc(-c2nc(-c3ccncc3)c(-c3ccc(F)cc3)[nH]2)cc1 [SB202190, 4-(4-fluorophenyl)-2-2(4-hydroxyphenyl)-5-(4-pyridyl)-imidazole] | – | changed significantly | reversed the down-regulation of inflammatory response genes | sustained high acetylation of H4 (AcH4)
